Values quoted from earlier work in US11273077B2, “Wound packing material comprising chemoeffector” (priority 2015, dated 2022).

Key:
Escherichia Coli = details: Tar and Tsr receptor mediated

SMILES	ligand specificity as chemoattractant (Enterobacteria)	concentration that induces E. coli chemotaxis (Escherichia Coli)	specificity of chemotaxis toward intermediates of amino acid metabolism (Pseudomonas Aeruginosa)
N[C@@H](CO)C(=O)O [L-serine]	high ligand specificity	nanomolar range	–
NCCCC(=O)O [GABA, gamma-aminobutyrate]	–	–	high specificity
